Test results published in US10538521B2, “Pyrimidine derivative having antimalarial activity” (CARNA BIOSCIENCES, INC., priority 2016, dated 2020).
Where two headings read alike, the source gives them in different places.

Assays:
[1] = test system: FCR3 strain, a drug sensitive strain of Plasmodium falciparum; experiment: In vitro antimalarial assay (p-LDH, Malstat), FCR3 strain; format: cell-based; details: read-out: Antimalarial activity (IC50 value), Strain FCR3
Outline: (§1)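 IC50 derived from concentration-response of parasite lactate dehydrogenase signal (Malstat reagent, NBT/PES formazan at 655 nm) after freeze-thaw lysis. Infected erythrocytes (hematocrit 2%, parasitaemia 0.5 or 1%) exposed 72 h to 12.5–0.0001 μM final compound under 3% O2-4% CO2-93% N2, FCR3 and K1 alike.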

[2] = test system: K1 strain, a drug resistant strain of Plasmodium falciparum; experiment: In vitro antimalarial assay (p-LDH, Malstat), K1 strain; format: cell-based; details: read-out: Antimalarial activity (IC50 value), Strain K1
Outline: as §1

[3] = P. falciparum FCR3 (drug sensitive), 72 h culture, p-LDH readout
[4] = P. falciparum K1 (drug resistant), 72 h culture, p-LDH readout

IC50 [1, 3] [nM]	IC50 [2, 4] [nM]	SMILES	IC50 ([1]; FCR3, 72 h) [nM]	IC50 ([2]; K1, 72 h) [nM]
1000 to 10000	100 to 1000	COc1cccc(Nc2nc(Nc3ccn4ccnc4c3)cc(N3CCCC3)n2)n1 [Example 143, N4-(imidazo[1,2-a]pyridin-7-yl)-N2-(6-methoxypyridin-2-yl)-6-(pyrrolidin-1-yl)pyrimidine-2,4-diamine]	–	–
< 100	< 100	Cc1cc(C)nc(Nc2nc(Nc3ccn4ccnc4c3)cc(N3CCC(N4CCOCC4)C3)n2)c1 (stereo not drawn) [Example 149, N2-(4,6-dimethylpyridin-2-yl)-N4-(imidazo[1,2-a]pyridin-7-yl)-6-(3-morpholinopyrrolidin-1-yl)pyrimidine-2,4-diamine]	–	–
< 100	100 to 1000	CCOc1cccc(Nc2nc(Nc3ccn4ccnc4c3)cc(N3CCCC3)n2)n1 [Example 150, N2-(6-ethoxypyridin-2-yl)-N4-(imidazo[1,2-a]pyridin-7-yl)-6-(pyrrolidin-1-yl)pyrimidine-2,4-diamine]	–	–
< 100	< 100	CC(C)Oc1cccc(Nc2nc(Nc3ccn4ccnc4c3)cc(N3CCCC3)n2)n1 [Example 153, N4-(imidazo[1,2-a]pyridin-7-yl)-N2-(6-isopropoxypyridin-2-yl)-6-(pyrrolidin-1-yl)pyrimidine-2,4-diamine]	–	–
< 100	< 100	c1cc(Nc2nc(Nc3ccn4ccnc4c3)cc(N3CCCC3)n2)nc(OCCN2CCOCC2)c1 [Example 154, N4-(imidazo[1,2-a]pyridin-7-yl)-N2-[6-(2-morpholinoethoxy)pyridin-2-yl]-6-(pyrrolidin-1-yl)pyrimidine-2,4-diamine]	–	–
< 100	< 100	COCCc1cccc(Nc2nc(Nc3ccn4ccnc4c3)cc(N3CCCC3)n2)n1 [Example 159, N4-(imidazo[1,2-a]pyridin-7-yl)-N2-[6-(2-methoxyethyl)pyridin-2-yl]-6-(pyrrolidin-1-yl)pyrimidine-2,4-diamine]	–	–
< 100	< 100	CCOCCc1cccc(Nc2nc(Nc3ccn4ccnc4c3)cc(N3CCCC3)n2)n1 [Example 160, N2-[6-(2-ethoxyethyl)pyridin-2-yl]-N4-(imidazo[1,2-a]pyridin-7-yl)-6-(pyrrolidin-1-yl) pyrimidine-2,4-diamine]	–	–
< 100	100 to 1000	CC(C)(C)Cc1cccc(Nc2nc(Nc3ccn4ccnc4c3)cc(N3CCCC3)n2)n1 [Example 162, N4-(imidazo[1,2-a]pyridin-7-yl)-N2-(6-neopentylpyridin-2-yl)-6-(pyrrolidin-1-yl)pyrimidine-2,4-diamine]	–	–
100 to 1000	1000 to 10000	CCCOCc1cccc(Nc2nc(Nc3ccn4ccnc4c3)cc(N3CCCC3)n2)n1 [Example 164, N4-(imidazo[1,2-a]pyridin-7-yl)-N2-[6-(propoxymethyl)pyridin-2-yl]-6-(pyrrolidin-1-yl) pyrimidine-2,4-diamine]	–	–
< 100	100 to 1000	CCCCc1cccc(Nc2nc(Nc3ccn4ccnc4c3)cc(N3CCC3)n2)n1 [Example 167, 6-(azetidin-1-yl)-N2-(6-butylpyridin-2-yl)-N4-(imidazo[1,2-a]pyridin-7-yl)pyrimidine-2,4-diamine]	–	–
< 100	100 to 1000	CCCCc1cccc(Nc2nc(Nc3ccn4ccnc4c3)cc(N3CCC(C)(C)C3)n2)n1 [Example 168, N2-(6-butylpyridin-2-yl)-6-(3,3-dimethylpyrrolidin-1-yl)-N4-(imidazo[l,2-a]pyridin-7-yl) pyrimidine-2,4-diamine]	–	–
< 100	100 to 1000	CN(C)CCc1cccc(Nc2nc(Nc3ccn4ccnc4c3)cc(N3CCCC3)n2)n1 [Example 172, N2-{6-[2-(dimethylamino)ethyl]pyridin-2-yl}-N4-(imidazo[1,2-a]pyridin-7-yl)-6-(pyrrolidin-1-yl)pyrimidine-2,4-diamine]	–	–
< 100	< 100	Cc1cc(C)nc(Nc2nc(Nc3ccn4ccnc4c3)cc(N3CCC4(CCOCC4)C3)n2)c1 [Example 175, N2-(4,6-dimethylpyridin-2-yl)-N4-(imidazo[1,2-a]pyridin-7-yl)-6-(8-oxa-2-azaspiro[4.5]decan-2-yl)pyrimidine-2,4-diamine]	–	–

The remaining lines, values behind:

SMILES	IC50 [1, 3] [nM]	IC50 [2, 4] [nM]	IC50 ([1]; FCR3, 72 h) [nM]	IC50 ([2]; K1, 72 h) [nM]
Cc1cc(C2CC2)cc(Nc2nc(Nc3ccn4ccnc4c3)cc(N3CCCCC3)n2)n1 [Example 141, N2-(4-cyclopropyl-6-methylpyridin-2-yl)-N4-(imidazo[1,2-a]pyridin-7-yl)-6-(piperidin-1-yl)pyrimidine-2,4-diamine]	< 100	100 to 1000	–	–
COc1cccc(Nc2nc(Nc3ccn4ccnc4c3)cc(N3CCCCC3)n2)n1 [Example 144, N4-(imidazo[1,2-a]pyridin-7-yl)-N2-(6-methoxypyridin-2-yl)-6-(piperidin-1-yl)pyrimidine-2,4-diamine]	100 to 1000	100 to 1000	–	–
CCOc1ccnc(Nc2nc(Nc3ccn4ccnc4c3)cc(N3CCCC3)n2)c1 [Example 145, N2-(4-ethoxypyridin-2-yl)-N4-(imidazo[1,2-a]pyridin-7-yl)-6-(pyrrolidin-1-yl)pyrimidine-2,4-diamine]	< 100	100 to 1000	–	–
Cc1cc(C)nc(Nc2nc(Nc3ccn4ccnc4c3)cc(N3CCC(C)C3)n2)c1 (stereo not drawn) [Example 146, N2-(4,6-dimethylpyridin-2-yl)-N4-(imidazo[1,2-a]pyridin-7-yl)-6-(3-methylpyrrolidin-1-yl)pyrimidine-2,4-diamine]	< 100	< 100	–	–
Cc1cc(C)nc(Nc2nc(Nc3ccn4ccnc4c3)cc(N3CCC(N4CCCC4)C3)n2)c1 (stereo not drawn) [Example 148, 6-([1,3′-bipyrrolidin]-1′-yl)-N2-(4,6-dimethylpyridin-2-yl)-N4-(imidazo[1,2-a]pyridin-7-yl)pyrimidine-2,4-diamine]	< 100	< 100	–	–
CCCOc1cccc(Nc2nc(Nc3ccn4ccnc4c3)cc(N3CCCC3)n2)n1 [Example 151, N4-(imidazo[1,2-a]pyridin-7-yl)-N2-(6-propoxypyridin-2-yl)-6-(pyrrolidin-1-yl)pyrimidine-2,4-diamine]	100 to 1000	100 to 1000	–	–
COCCOc1cccc(Nc2nc(Nc3ccn4ccnc4c3)cc(N3CCCC3)n2)n1 [Example 152, N4-(imidazo[1,2-a]pyridin-7-yl)-N2-[6-(2-methoxyethoxy)pyridin-2-yl]-6-(pyrrolidin-1-yl)pyrimidine-2,4-diamine]	< 100	< 100	–	–
CN(C)CCOc1cccc(Nc2nc(Nc3ccn4ccnc4c3)cc(N3CCCC3)n2)n1 [Example 155, N2-{6-[2-(dimethylamino)ethoxy]pyridin-2-yl}-N4-(imidazo[1,2-a]pyridin-7-yl)-6-(pyrrolidin-1-yl)pyrimidine-2,4-diamine]	< 100	< 100	–	–
CC(C)(C)OCCOc1cccc(Nc2nc(Nc3ccn4ccnc4c3)cc(N3CCCC3)n2)n1 [Example 156, N2-{6-[2-(tert-butoxy)ethoxy]pyridin-2-yl}-N4-(imidazo[1,2-a]pyridin-7-yl)-6-(pyrrolidin-1-yl)pyrimidine-2,4-diamine]	< 100	100 to 1000	–	–
OCCOc1cccc(Nc2nc(Nc3ccn4ccnc4c3)cc(N3CCCC3)n2)n1 [Example 157, 2-[(6-{[4-(imidazo[1,2-a]pyridin-7-ylamino)-6-(pyrrolidin-1-yl)pyrimidin-2-yl]amino}pyridin-2-yl)oxy]ethanol]	< 100	< 100	–	–
CC(C)COc1cccc(Nc2nc(Nc3ccn4ccnc4c3)cc(N3CCCC3)n2)n1 [Example 158, N4-(imidazo[1,2-a]pyridin-7-yl)-N2-(6-isobutoxypyridin-2-yl)-6-(pyrrolidin-1-yl)pyrimidine-2,4-diamine]	< 100	100 to 1000	–	–
c1cc(CCN2CCCC2)nc(Nc2nc(Nc3ccn4ccnc4c3)cc(N3CCCC3)n2)c1 [Example 163, N4-(imidazo[1,2-a]pyridin-7-yl)-6-(pyrrolidin-1-yl)-N2-{6-[2-(pyrrolidin-1-yl)ethyl]pyridin-2-yl}pyrimidine-2,4-diamine triformate]	–	–	< 100	100 to 1000
Cc1cc(C)nc(Nc2nc(Nc3ccn4ccnc4c3)cc(N3CCC3)n2)c1 [Example 166, 6-(azetidin-1-yl)-N2-(4,6-dimethylpyridin-2-yl)-N4-(imidazo [1,2-a]pyridin-7-yl)pyrimidine-2,4-diamine]	< 100	< 100	–	–
CCCCc1cccc(Nc2nc(Nc3ccn4ccnc4c3)cc(N3CCC4(CCOCC4)C3)n2)n1 [Example 169, N2-(6-butylpyridin-2-yl)-N4-(imidazo[1,2-a]pyridin-7-yl)-6-(8-oxa-2-azaspiro[4.5]decan-2-yl) pyrimidine-2,4-diamine]	< 100	< 100	–	–
CCOCc1cccc(Nc2nc(Nc3ccn4ccnc4c3)cc(N3CCCC3)n2)n1 [Example 171, N2-[6-(ethoxymethyl)pyridin-2-yl]-N4-(imidazo[1,2-a]pyridin-7-yl)-6-(pyrrolidin-1-yl) pyrimidine-2,4-diamine]	100 to 1000	100 to 1000	–	–
CCCCc1cccc(Nc2nc(Nc3ccn4ccnc4c3)cc(N3CCC4(CCCC4)C3)n2)n1 [Example 173, N2-(6-butylpyridin-2-yl)-N4-(imidazo[1,2-a]pyridin-7-yl)-6-(2-azaspiro[4.4]nonan-2-yl) pyrimidine-2,4-diamine]	100 to 1000	100 to 1000	–	–
Cc1cc(C)nc(Nc2nc(Nc3ccn4ccnc4c3)cc(N3C[C@H]4CCC[C@H]4C3)n2)c1 [Example 176, N2-(4,6-dimethylpyridin-2-yl)-6-[(3aR,6aS)-hexahydrocyclopenta [c]pyrrol-2(1H)-yl]-N4-(imidazo[1,2-a]pyridin-7-yl) pyrimidine-2,4-diamine]	< 100	< 100	–	–
